From patent US10350213B2 (AI Therapeutics, Inc., priority 2015, dated 2019)

Assays:
[1] = system: SUDHL-4 (Human Diffuse Large B Cell Lymphoma -GCB); test: CellTiterGlo cell viability assay; format: cell-based; conditions: Homo sapiens, 72 h; SU-DHL-4; three-day assay; read-out: IC50 (nM) SU-DHL-4
[2] = system: WSU-DLCL2 (Human Diffuse Large B Cell Lymphoma -GCB); test: CellTiterGlo cell viability assay; format: cell-based; conditions: Homo sapiens, WSUDLCL2, 72 h, three-day assay, read-out: IC50 (nM) WSU-DLCL2

SMILES	IC50 [1]	IC50 [2]
CC1(C)CCC(CN2CCN(c3ccc(C(=O)NS(=O)(=O)c4ccc(NCC5CCOCC5)c([N+](=O)[O-])c4)c(Oc4cnc5[nH]ccc5c4)c3)CC2)=C(c2ccc(Cl)cc2)C1 [ABT-199]	212 nM	3370 nM
O=C(/C=C\n1cnc(-c2cc(C(F)(F)F)cc(C(F)(F)F)c2)n1)NNc1cnccn1 [KPT-330]	93 nM	165 nM
C[C@H](Nc1ncnc2nc[nH]c12)c1cc2cccc(Cl)c2c(=O)n1-c1ccccc1 [duvelisib]	13 nM	863 nM
C=CC(=O)N1CCC[C@@H](n2nc(-c3ccc(Oc4ccccc4)cc3)c3c(N)ncnc32)C1 [ibrutinib]	718 nM	747 nM
CC[C@H](Nc1ncnc2[nH]cnc12)c1nc2cccc(F)c2c(=O)n1-c1ccccc1 [idelalisib]	2030 nM	6150 nM
